Test in all cases: serine hydrolase panel inhibition in mouse proteome, late-stage follow-up, selectivity assay for DAGLb inhibitor project, gel-based competitive ABPP, fluorescence (AID 602355)
One test concerns LYPLA2. The conditions noted are these: FP-rhodamine fluorescence, at 10 µM (top of the series).
The subject of the next test is ABHD11. As to conditions: FP-rhodamine fluorescence, at 10 µM (top of the series).
In a further test the test system is MAGL. The conditions noted are these: FP-rhodamine fluorescence, at 10 µM (top of the series).
The target of test [1] is Acyl-protein thioesterase 1 (Mus musculus) (UniProt P97823). The conditions noted are these: FP-rhodamine fluorescence, LYPLA1, at 10 µM (top of the series).
Sequence of Acyl-protein thioesterase 1 (Mus musculus) (P97823 whole entry, looked up): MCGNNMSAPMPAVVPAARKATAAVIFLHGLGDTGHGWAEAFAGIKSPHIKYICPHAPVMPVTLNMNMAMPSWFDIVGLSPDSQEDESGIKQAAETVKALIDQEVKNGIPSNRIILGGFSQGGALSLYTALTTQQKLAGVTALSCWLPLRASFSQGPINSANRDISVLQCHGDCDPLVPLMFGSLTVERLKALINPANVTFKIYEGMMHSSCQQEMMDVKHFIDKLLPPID
A further test concerns FAAH. As to conditions: FP-rhodamine fluorescence, at 10 µM (top of the series).
The next test relates to PNPLA6. The conditions noted are these: FP-rhodamine fluorescence, at 10 µM (top of the series).
Test [2] addresses Monoacylglycerol lipase ABHD6 (Mus musculus) (UniProt Q8R2Y0). As to conditions: FP-rhodamine fluorescence, at 10 µM (top of the series).
In test [3] the target is Diacylglycerol lipase-beta (Mus musculus) (UniProt Q91WC9). As to conditions: FP-rhodamine fluorescence, DAGLb, at 10 µM (top of the series).
Sequence of Diacylglycerol lipase-beta (Mus musculus) (Q91WC9 whole entry, looked up): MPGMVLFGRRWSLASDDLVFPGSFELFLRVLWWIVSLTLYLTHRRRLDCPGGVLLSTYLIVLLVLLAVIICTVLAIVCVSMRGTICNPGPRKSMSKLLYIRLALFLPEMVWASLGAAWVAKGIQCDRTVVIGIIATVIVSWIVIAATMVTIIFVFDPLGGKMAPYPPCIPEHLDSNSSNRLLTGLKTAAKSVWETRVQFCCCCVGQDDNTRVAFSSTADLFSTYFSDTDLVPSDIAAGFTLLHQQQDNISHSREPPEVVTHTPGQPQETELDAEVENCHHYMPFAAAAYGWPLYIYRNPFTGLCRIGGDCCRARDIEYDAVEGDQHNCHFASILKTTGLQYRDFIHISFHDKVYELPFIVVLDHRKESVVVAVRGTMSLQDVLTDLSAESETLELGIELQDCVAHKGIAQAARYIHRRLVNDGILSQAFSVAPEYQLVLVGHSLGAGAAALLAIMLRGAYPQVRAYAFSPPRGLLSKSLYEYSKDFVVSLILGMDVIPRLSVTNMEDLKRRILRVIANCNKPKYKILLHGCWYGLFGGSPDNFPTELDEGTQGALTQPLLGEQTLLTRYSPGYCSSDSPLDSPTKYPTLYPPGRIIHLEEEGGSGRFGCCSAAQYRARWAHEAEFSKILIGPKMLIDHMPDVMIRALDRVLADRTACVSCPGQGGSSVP
The next test deals with ABHD12. The conditions noted are these: FP-rhodamine fluorescence, at 10 µM (top of the series).
Test [4] addresses Platelet-activating factor acetylhydrolase (Mus musculus) (UniProt Q60963). As to conditions: FP-rhodamine fluorescence, PLA2G7, at 10 µM (top of the series).
Test [5] deals with Platelet-activating factor acetylhydrolase 2, cytoplasmic (Mus musculus) (UniProt Q8VDG7). The conditions noted are these: FP-rhodamine fluorescence, PAFAH2, at 10 µM (top of the series).
Sequence of Platelet-activating factor acetylhydrolase 2, cytoplasmic (Mus musculus) (Q8VDG7 whole entry, looked up): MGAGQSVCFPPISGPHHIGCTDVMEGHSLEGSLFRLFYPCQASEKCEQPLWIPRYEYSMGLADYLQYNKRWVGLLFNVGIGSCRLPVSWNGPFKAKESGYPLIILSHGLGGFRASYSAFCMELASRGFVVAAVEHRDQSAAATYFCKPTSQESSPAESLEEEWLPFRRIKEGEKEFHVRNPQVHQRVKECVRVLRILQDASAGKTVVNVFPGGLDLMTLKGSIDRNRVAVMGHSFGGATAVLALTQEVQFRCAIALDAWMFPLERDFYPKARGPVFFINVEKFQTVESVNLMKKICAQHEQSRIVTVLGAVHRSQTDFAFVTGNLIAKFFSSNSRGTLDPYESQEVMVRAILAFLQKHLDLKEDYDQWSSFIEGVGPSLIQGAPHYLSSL

This is an account of results in PubChem BioAssay AID602355 (The Scripps Research Institute Molecular Screening Center, 2012).

Calls of active or inactive are those of the source. How the calls were made is not given here.

Sequence of Monoacylglycerol lipase ABHD6 (Mus musculus) (Q8R2Y0 whole entry, looked up): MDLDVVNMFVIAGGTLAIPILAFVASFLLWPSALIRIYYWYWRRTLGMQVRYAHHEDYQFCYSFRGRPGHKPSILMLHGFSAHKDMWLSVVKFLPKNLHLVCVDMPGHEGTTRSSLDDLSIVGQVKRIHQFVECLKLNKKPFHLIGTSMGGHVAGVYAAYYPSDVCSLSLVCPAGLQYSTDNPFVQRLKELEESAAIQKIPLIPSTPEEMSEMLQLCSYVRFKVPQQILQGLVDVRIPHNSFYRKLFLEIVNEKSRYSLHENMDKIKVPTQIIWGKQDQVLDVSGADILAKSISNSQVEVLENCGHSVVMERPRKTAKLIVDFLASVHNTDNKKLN
Sequence of Platelet-activating factor acetylhydrolase (Mus musculus) (Q60963 whole entry, looked up): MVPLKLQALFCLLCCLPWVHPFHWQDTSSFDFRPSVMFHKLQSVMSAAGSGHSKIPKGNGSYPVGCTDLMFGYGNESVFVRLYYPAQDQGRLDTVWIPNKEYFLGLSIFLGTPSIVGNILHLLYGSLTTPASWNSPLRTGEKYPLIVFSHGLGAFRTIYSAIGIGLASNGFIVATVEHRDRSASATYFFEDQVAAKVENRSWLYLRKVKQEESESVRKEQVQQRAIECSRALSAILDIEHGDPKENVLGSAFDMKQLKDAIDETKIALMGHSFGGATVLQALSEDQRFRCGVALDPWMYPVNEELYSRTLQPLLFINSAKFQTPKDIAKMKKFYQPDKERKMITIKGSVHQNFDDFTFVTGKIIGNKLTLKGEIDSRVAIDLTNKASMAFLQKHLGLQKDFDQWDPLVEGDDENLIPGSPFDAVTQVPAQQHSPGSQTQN

Take `COc1ccc(-c2ccc(-c3cn(C(=O)N4CCCCC4c4ccccc4)nn3)cc2)cc1` (stereo not drawn): the inhibition is 15% (inactive) in the test on LYPLA2; 0% (inactive) in the test with ABHD11; 0% (inactive) in the test with MAGL; 15% (inactive) in [1]; 70% in the test with FAAH; 55% (inactive) with PNPLA6. For the same molecule, the figures for the inhibition (in test [2]; in test [3]; in the test with ABHD12) were 100%, 20% (inactive) and 0% (inactive), respectively.
In the case of `COc1ccccc1-c1ccc(-c2cn(C(=O)N3CCCCC3Cc3ccccc3)nn2)cc1` (stereo not drawn), the inhibition is 0% (inactive) with LYPLA2; 85% in test [4]; 0% (inactive) with ABHD11; 100% in the test on MAGL; 0% (inactive) in [1]; 0% (inactive) in the test with FAAH. In addition, the inhibition is 15% (inactive) in test [5], 100% in [2], 95% in [3] and 0% (inactive) with ABHD12.
On to `O=C(N1CCCCC1Cc1ccccc1)n1cc(-c2ccc(-c3ccccc3)cc2)nn1` (stereo not drawn), for which the inhibition in the test on LYPLA2 is 0% (inactive); in test [4] it was 100%; in the test on ABHD11, 0% (inactive); in the test on MAGL, 0% (inactive); in test [1] it was 0% (inactive); in the test on FAAH, 25% (inactive). In addition, the inhibition in [5] was 80% (inactive); in [2], 100%; with ABHD12, 20% (inactive).
